This note sets out measurements from ChEMBL document CHEMBL5096221, “Discovery of a Highly Potent and Orally Bioavailable STAT3 Dual Phosphorylation Inhibitor for Pancreatic Cancer Treatment” (J Med Chem, 2022).

Data set [1] is described as follows: Inhibition of ATP production in human BXPC-3 cells incubated for 20 to 24 hrs by ATP assay kit method. Format: functional, cell-based.
Data set [2] deals with BXPC-3. In words: Anti-proliferative activity against human BXPC-3 cells assessed as cell growth inhibition incubated for 72 hrs by MTS assay. The settings on record: BXPC-3, 72 h. It counts as functional, cell-based. (In general: Formazan colour is commonly taken as a measure of viable cells.)
Another data set relates to Capan-2. The data set can be described thus: Anti-proliferative activity against human Capan-2 cells assessed as cell growth inhibition incubated for 72 hrs by MTS assay. It counts as functional, cell-based. The settings on record: Capan-2, 72 h.
Data set [3] relates to BXPC-3. The data set can be described thus: Antitumor activity against human BXPC-3 cells xenografted BALB/c mouse model assessed as tumor growth inhibition at 30 mg/kg,po administrated once daily for 8 weeks. The settings on record: BXPC-3, 1344 h, read-out: TGI. Format: functional. A general note: In xenograft studies the graft and the host belong to different species.
Data set [4] in a line: Toxicity in BALB/c mouse xenografted with human BXPC-3 cells assessed as body weight change at 30 mg/kg,po administrated once daily for 8 weeks. It counts as organism-based. To be noted: in vivo, 1344 h.
Data set [5] can be described thus: Toxicity in BALB/c mouse xenografted with human BXPC-3 cells assessed as effect on heart at 30 mg/kg,po administrated once daily for 8 weeks by H and E staining based microscopic analysis. Format: organism-based. To be noted: in vivo, 1344 h.
Data set [6] can be described thus: Toxicity in BALB/c mouse xenografted with human BXPC-3 cells assessed as effect on liver at 30 mg/kg,po administrated once daily for 8 weeks by H and E staining based microscopic analysis. It counts as organism-based. To be noted: in vivo, 1344 h.
Data set [7] is described as follows: Toxicity in BALB/c mouse xenografted with human BXPC-3 cells assessed as effect on spleen at 30 mg/kg,po administrated once daily for 8 weeks by H and E staining based microscopic analysis. Format: organism-based. To be noted: in vivo, 1344 h.
Data set [8] in a line: Toxicity in BALB/c mouse xenografted with human BXPC-3 cells assessed as effect on lung at 30 mg/kg,po administrated once daily for 8 weeks by H and E staining based microscopic analysis. It counts as organism-based. To be noted: in vivo, 1344 h.
The nature of data set [9]: Toxicity in BALB/c mouse xenografted with human BXPC-3 cells assessed as effect on kidney at 30 mg/kg,po administrated once daily for 8 weeks by H and E staining based microscopic analysis. Format: organism-based. To be noted: in vivo, 1344 h.
Data set [10] deals with Signal transducer and activator of transcription 3 (Homo sapiens, UniProt P40763). The data set can be described thus: Inhibition of STAT3 in human HEK293T cells assessed as inhibition of IL-6 stimulated STAT3 phosphorylation by dual-luciferase reporter assay. Format: cell-based. (In general: Reporter assays use an easily measured gene product as a stand-in for the process of interest.)

Data set [11] is described as follows: Microsomal stability in human liver microsomes assessed as half life incubated upto 40 mins in presence of NADPH by LC-MS/MS analysis. Format: ADME, Microsome.
A short description of data set [12]: Microsomal stability in rat liver microsomes assessed as half life incubated upto 40 mins in presence of NADPH by LC-MS/MS analysis. Format: ADME, Microsome.
Data set [13] in a line: Microsomal stability in dog liver microsomes assessed as half life incubated upto 40 mins in presence of NADPH by LC-MS/MS analysis. Format: ADME, Canis lupus familiaris, Microsome.
Data set [14] can be described thus: Microsomal stability in human liver microsomes assessed as intrinsic clearance incubated upto 40 mins in presence of NADPH by LC-MS/MS analysis. Format: ADME, Microsome. To be noted: read-out: CLH.
A short description of data set [15]: Microsomal stability in rat liver microsomes assessed as intrinsic clearance incubated upto 40 mins in presence of NADPH by LC-MS/MS analysis. It counts as ADME, Microsome. The settings on record: read-out: CLH.
Data set [16] can be described thus: Microsomal stability in dog liver microsomes assessed as intrinsic clearance incubated upto 40 mins in presence of NADPH by LC-MS/MS analysis. Format: ADME, Canis lupus familiaris, Microsome. The settings on record: read-out: CLH.
Data set [17] is described as follows: Microsomal stability in human liver microsomes assessed as compound remaining incubated for 60 mins in presence of NADPH by LC-MS/MS analysis. Format: ADME, Microsome. To be noted: read-out: Stability.
Data set [18] can be described thus: Microsomal stability in rat liver microsomes assessed as compound remaining incubated for 60 mins in presence of NADPH by LC-MS/MS analysis. Format: ADME, Microsome. The settings on record: read-out: Stability.
The nature of data set [19]: Microsomal stability in dog liver microsomes assessed as compound remaining incubated for 60 mins in presence of NADPH by LC-MS/MS analysis. It counts as ADME, Canis lupus familiaris, Microsome. The settings on record: read-out: Stability.
Another data set deals with T1, Cytochrome P450 1A2 (Homo sapiens, UniProt P05177).
T1 sequence (P05177 whole entry): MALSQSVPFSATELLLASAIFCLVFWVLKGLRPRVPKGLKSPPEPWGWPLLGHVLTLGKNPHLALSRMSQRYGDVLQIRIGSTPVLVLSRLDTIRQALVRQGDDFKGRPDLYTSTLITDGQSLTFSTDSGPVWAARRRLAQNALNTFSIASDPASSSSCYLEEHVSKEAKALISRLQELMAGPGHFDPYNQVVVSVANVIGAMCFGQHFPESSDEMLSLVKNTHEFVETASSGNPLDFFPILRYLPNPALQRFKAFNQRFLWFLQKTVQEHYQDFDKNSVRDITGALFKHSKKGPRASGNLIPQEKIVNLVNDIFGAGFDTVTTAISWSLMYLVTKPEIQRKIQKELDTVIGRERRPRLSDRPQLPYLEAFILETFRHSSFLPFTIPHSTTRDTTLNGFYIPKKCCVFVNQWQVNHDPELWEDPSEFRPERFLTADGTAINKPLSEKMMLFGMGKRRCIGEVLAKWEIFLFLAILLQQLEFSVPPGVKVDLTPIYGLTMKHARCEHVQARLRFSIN
The data set can be described thus: Inhibition of CYP1A2 in human liver microsomes using phenacetin as substrate incubated for 30 mins in presence of NADPH by HPLC analysis. It counts as ADME, Microsome.

In another data set the target is Cytochrome P450 2C9 (Homo sapiens, UniProt P11712). The data set can be described thus: Inhibition of CYP2C9 in human liver microsomes using tolbutamide as substrate incubated for 60 mins in presence of NADPH by HPLC analysis. Format: ADME, Microsome.
The target in the next data set is Cytochrome P450 2C19 (Homo sapiens, UniProt P33261). The data set can be described thus: Inhibition of CYP2C19 in human liver microsomes. It counts as ADME, Microsome.
Another data set addresses Cytochrome P450 2D6 (Homo sapiens, UniProt P10635). The data set can be described thus: Inhibition of CYP2D6 in human liver microsomes using dextromethorphan as substrate incubated for 60 mins in presence of NADPH by HPLC analysis. Format: ADME, Microsome.
In a further data set the target is Cytochrome P450 3A4 (Homo sapiens, UniProt P08684). The data set can be described thus: Inhibition of CYP3A4 in human liver microsomes using testosterone as substrate in presence of NADPH by HPLC analysis. Format: ADME, Microsome.
Data set [20] can be described thus: Cmax in BALB/c mouse at 1 mg/kg,iv measured upto 24 hrs by LC-MS/MS analysis. Format: ADME, organism-based. Further details: dose 1 mg/kg, time < 24 hrs, route iv. The settings on record: in vivo.
A short description of data set [21]: AUC (0-24hrs) in BALB/c mouse at 1 mg/kg,iv measured upto 24 hrs by LC-MS/MS analysis. It counts as ADME, organism-based. Further details: time < 24 hrs, dose 1 mg/kg, route iv. To be noted: in vivo.
Data set [22] can be described thus: AUC (0-infinity) in BALB/c mouse at 1 mg/kg,iv measured upto 24 hrs by LC-MS/MS analysis. Format: ADME, organism-based. Set-up: dose 1 mg/kg, time < 24 hrs, route iv. The settings on record: in vivo.
Data set [23] can be described thus: Volume of distribution at steady state in BALB/c mouse at 1 mg/kg,iv measured upto 24 hrs by LC-MS/MS analysis. Format: ADME, organism-based. The settings on record: in vivo, iv, 1 mg/kg, 24 h.
Data set [24] in a line: Clearance at steady state in BALB/c mouse at 1 mg/kg,iv measured upto 24 hrs by LC-MS/MS analysis. To be noted: in vivo, iv, 1 mg/kg, 24 h. Format: ADME, organism-based.
A short description of data set [25]: MRT (0 to last) in BALB/c mouse at 1 mg/kg,iv measured upto 24 hrs by LC-MS/MS analysis. Format: ADME, organism-based. The settings on record: in vivo, iv, 1 mg/kg, 24 h.
Data set [26] can be described thus: Half life in BALB/c mouse at 1 mg/kg,iv measured upto 24 hrs by LC-MS/MS analysis. Format: ADME, organism-based. To be noted: in vivo.
Data set [27] is described as follows: Cmax in BALB/c mouse at 10 mg/kg,po measured upto 24 hrs by LC-MS/MS analysis. It counts as ADME, organism-based. Further details: time < 24 hrs, dose 10 mg/kg, route po. The settings on record: in vivo.
A short description of data set [28]: AUC (0-24hrs) in BALB/c mouse at 10 mg/kg,po measured upto 24 hrs by LC-MS/MS analysis. Format: ADME, organism-based. Set-up: dose 10 mg/kg, time < 24 hrs, route po. To be noted: in vivo.
Data set [29] is described as follows: AUC (0-infinity) in BALB/c mouse at 10 mg/kg,po measured upto 24 hrs by LC-MS/MS analysis. Format: ADME, organism-based. Further details: time < 24 hrs, dose 10 mg/kg, route po. To be noted: in vivo.
Data set [30] in a line: MRT (0 to last) in BALB/c mouse at 10 mg/kg,po measured upto 24 hrs by LC-MS/MS analysis. It counts as ADME, organism-based. To be noted: in vivo.
Data set [31] is described as follows: Half life in BALB/c mouse at 10 mg/kg,po measured upto 24 hrs by LC-MS/MS analysis. It counts as ADME, organism-based. The settings on record: in vivo.
A short description of data set [32]: Oral bioavailability in BALB/c mouse at 10 mg/kg,po measured upto 24 hrs by LC-MS/MS analysis. The settings on record: in vivo. Format: ADME, organism-based.

What is called IC50 is the concentration at which inhibition is half-maximal. Usually half-life stands for how long it takes for the measured level to halve. In general, Cmax refers to the peak of the concentration-time curve. One may read the AUC(0-t) as exposure summed from dosing to a finite time, without extrapolation to infinity. The AUC(0-inf) is total exposure, with the tail of the curve extrapolated. Higher therefore signals high exposure. Broadly, the Vdss is the apparent volume that relates the amount in the body to the concentration in plasma or blood. The low end stands for confinement near the circulation, the high end for extensive tissue distribution. For orientation: MRT last means a mean duration of stay, worked out from the concentration-time curve. What is called bioavailability is dose-corrected exposure relative to a reference, in per cent. A low value points to little systemic uptake.

Sequence of Cytochrome P450 2C19 (P33261 whole entry): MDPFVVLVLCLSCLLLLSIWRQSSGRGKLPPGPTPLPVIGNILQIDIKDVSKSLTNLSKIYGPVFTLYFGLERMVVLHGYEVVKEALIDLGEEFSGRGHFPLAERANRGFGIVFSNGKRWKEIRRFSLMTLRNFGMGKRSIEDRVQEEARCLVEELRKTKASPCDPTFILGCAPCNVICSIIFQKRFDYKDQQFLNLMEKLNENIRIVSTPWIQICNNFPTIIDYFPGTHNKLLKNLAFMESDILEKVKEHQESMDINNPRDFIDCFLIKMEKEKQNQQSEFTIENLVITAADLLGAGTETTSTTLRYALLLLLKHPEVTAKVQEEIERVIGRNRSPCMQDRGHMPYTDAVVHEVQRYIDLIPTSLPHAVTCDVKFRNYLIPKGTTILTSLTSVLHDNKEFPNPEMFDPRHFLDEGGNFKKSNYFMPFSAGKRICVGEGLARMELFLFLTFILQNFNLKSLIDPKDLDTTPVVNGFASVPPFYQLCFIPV
Sequence of Signal transducer and activator of transcription 3 (P40763 whole entry): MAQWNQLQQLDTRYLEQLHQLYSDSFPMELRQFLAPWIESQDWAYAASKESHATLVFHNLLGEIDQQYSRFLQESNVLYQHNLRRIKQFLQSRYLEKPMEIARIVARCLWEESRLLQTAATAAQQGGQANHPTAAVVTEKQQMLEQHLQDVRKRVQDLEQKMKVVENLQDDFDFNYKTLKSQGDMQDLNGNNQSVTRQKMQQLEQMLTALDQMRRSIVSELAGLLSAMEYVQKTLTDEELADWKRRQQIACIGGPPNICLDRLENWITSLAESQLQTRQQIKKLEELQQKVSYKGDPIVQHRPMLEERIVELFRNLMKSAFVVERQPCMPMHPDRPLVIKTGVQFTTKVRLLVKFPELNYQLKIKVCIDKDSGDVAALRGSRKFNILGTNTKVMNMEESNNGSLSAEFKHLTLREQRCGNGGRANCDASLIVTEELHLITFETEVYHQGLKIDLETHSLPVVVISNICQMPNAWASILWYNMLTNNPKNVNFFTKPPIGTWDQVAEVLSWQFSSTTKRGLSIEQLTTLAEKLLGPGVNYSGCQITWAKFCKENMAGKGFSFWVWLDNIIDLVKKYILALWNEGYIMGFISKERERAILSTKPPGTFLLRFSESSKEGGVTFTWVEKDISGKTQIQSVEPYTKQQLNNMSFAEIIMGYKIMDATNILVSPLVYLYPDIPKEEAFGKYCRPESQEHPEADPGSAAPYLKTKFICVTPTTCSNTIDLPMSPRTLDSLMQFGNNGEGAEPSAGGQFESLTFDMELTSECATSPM
Sequence of Cytochrome P450 2C9 (P11712 whole entry): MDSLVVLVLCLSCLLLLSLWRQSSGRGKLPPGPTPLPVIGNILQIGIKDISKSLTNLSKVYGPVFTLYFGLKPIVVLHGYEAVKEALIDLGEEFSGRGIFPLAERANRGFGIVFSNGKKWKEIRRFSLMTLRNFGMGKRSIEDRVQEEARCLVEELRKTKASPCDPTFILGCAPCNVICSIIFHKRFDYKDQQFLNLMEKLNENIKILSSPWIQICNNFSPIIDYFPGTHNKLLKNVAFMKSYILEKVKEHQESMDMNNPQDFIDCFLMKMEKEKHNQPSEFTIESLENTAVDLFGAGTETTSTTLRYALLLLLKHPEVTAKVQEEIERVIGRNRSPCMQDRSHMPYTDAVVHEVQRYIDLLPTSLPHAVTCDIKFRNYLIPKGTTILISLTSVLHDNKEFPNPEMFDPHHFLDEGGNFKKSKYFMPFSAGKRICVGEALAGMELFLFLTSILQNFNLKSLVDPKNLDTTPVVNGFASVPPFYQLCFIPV
Sequence of Cytochrome P450 2D6 (P10635 whole entry): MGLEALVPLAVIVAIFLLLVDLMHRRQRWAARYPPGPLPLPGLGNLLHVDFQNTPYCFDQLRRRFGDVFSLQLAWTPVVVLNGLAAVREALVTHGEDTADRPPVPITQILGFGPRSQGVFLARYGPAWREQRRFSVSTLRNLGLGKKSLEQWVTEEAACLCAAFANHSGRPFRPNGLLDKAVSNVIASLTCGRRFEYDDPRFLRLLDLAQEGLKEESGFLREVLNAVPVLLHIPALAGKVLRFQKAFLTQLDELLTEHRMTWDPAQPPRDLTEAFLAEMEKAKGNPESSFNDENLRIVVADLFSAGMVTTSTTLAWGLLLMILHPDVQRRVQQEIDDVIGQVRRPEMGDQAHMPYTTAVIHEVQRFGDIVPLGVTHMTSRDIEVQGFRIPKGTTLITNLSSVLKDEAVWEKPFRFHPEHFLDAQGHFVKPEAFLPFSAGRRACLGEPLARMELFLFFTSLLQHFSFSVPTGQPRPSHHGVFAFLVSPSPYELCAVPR
Sequence of Cytochrome P450 3A4 (P08684 whole entry): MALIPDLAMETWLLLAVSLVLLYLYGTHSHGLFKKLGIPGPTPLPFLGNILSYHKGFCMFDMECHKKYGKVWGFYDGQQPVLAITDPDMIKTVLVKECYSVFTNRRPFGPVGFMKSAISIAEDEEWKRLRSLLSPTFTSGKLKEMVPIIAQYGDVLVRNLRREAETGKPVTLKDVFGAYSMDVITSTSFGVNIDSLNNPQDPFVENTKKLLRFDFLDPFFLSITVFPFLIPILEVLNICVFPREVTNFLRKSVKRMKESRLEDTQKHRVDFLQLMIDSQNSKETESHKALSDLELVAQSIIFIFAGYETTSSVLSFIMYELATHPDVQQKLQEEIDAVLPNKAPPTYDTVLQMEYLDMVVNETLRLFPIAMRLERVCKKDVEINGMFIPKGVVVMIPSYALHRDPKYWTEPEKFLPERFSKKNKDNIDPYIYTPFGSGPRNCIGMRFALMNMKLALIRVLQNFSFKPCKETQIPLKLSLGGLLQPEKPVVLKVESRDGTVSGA

Regarding `CC(=O)c1cc2c(o1)C(=O)c1ccccc1C2=O` [NAPABUCASIN], the results for the concentration for half-maximal inhibition (IC50) (in data set [1]; in the data set with BXPC-3 [2]; in the data set on Capan-2) were 1960 nM, 5310 nM and 1590 nM, respectively. Moreover, in the data set on BXPC-3 [3], the inhibition in vivo at 30 mg/kg came to 26.1%. The Activity entry in data set [4], in data set [5], in data set [6], in data set [7], in data set [8] and in data set [9] was “Non-Toxic” throughout.

In the case of `Cn1c(C(=O)N2CCN(Cc3ccc(OCC(F)(F)F)cc3)CC2)cc2ccc(Oc3cnc(-c4nc(-c5ccc(F)cc5)no4)cn3)cc21`, the IC50 was 5.9 nM in data set [10]; 2.4 nM in data set [1]; 1.4 nM with BXPC-3 [2]; 6.4 nM in the data set on Capan-2; more than 50000 nM on Cytochrome P450 1A2; more than 50000 nM at Cytochrome P450 2C9. For the same compound, the 50% inhibitory concentration (IC50) against Cytochrome P450 2C19, at Cytochrome P450 2D6 and at Cytochrome P450 3A4 was more than 50000 nM each time. For the same compound, the half-life in data set [11] is 1.22 h; in [12], 1.24 h; in data set [13] it was 1.07 h; in [26], 17.7 h; in data set [31] it was 13.9 h. In addition, the microsomal CLint stood at 18.9 µL/min/mg in data set [14], 18.6 µL/min/mg in [15] and 21.5 µL/min/mg in [16]. Moreover, the remaining at 1 h in [17] was found to be 57.6%; in [18], 55.4%; in data set [19] it was 50.9%. Besides, the maximum concentration (Cmax) in [20] turned out to be 2910 ng/mL; in data set [27], 669 ng/mL. Also, the AUC(0-t) at 24 h in [21] was 8680 ng·h/mL; in data set [28] it was 10900 ng·h/mL. Moreover, the total exposure AUC(0-inf) in data set [22] came to 13800 ng·h/mL; in [29], 12300 ng·h/mL. In data set [23], this compound showed a volume of distribution (Vdss) of 3.7352 L/kg. The CL in data set [24] was 1.24 mL/min/kg. Also, in data set [25], the MRTlast came out at 15 h. In addition, the MRT last at 24 h in data set [30] came out at 15.6 h. The bioavailability in data set [32] was determined as 12.5%.
